Assay results published in the NIST ThermoML archive (doi:10.1021/je7003758).
Numbers after ± are expanded uncertainties.

Assay: xn = mol fraction of the nth substance listed
Conditions: 298.15 K, Liquid

ClCCCCCCCl [1,6-dichlorohexane] + CN1CCCC1=O
mass density [kg/m3]
Conditions	x2 = 0.1182	x2 = 0.2016	x2 = 0.3079	x2 = 0.4114	x2 = 0.5049	x2 = 0.6008	x2 = 0.7023	x2 = 0.8009	x2 = 0.8972
100 kPa	1060.7 ± 1.2	1058.4 ± 1.1	1055.4 ± 1	1052 ± 0.8	1049 ± 0.7	1045.6 ± 0.7	1041.6 ± 0.6	1037.5 ± 0.5	1033.1 ± 0.5
500 kPa	1060.9 ± 1.2	1058.7 ± 1.1	1055.6 ± 1	1052.3 ± 0.8	1049.2 ± 0.7	1045.8 ± 0.7	1041.8 ± 0.6	1037.7 ± 0.5	1033.4 ± 0.5
1000 kPa	1061.3 ± 1.2	1059.1 ± 1.1	1056 ± 1	1052.6 ± 0.9	1049.5 ± 0.8	1046.1 ± 0.7	1042.1 ± 0.6	1038 ± 0.5	1033.6 ± 0.5
1500 kPa	1061.6 ± 1.2	1059.4 ± 1.1	1056.3 ± 1	1052.9 ± 0.9	1049.8 ± 0.8	1046.4 ± 0.7	1042.4 ± 0.6	1038.3 ± 0.5	1033.9 ± 0.5
2000 kPa	1062 ± 1.2	1059.7 ± 1.1	1056.6 ± 1	1053.3 ± 0.9	1050.1 ± 0.8	1046.7 ± 0.7	1042.7 ± 0.6	1038.6 ± 0.5	1034.2 ± 0.5
2500 kPa	1062.3 ± 1.2	1060 ± 1.1	1056.9 ± 1	1053.6 ± 0.9	1050.5 ± 0.8	1047 ± 0.7	1043 ± 0.6	1038.9 ± 0.5	1034.4 ± 0.5
3000 kPa	1062.6 ± 1.3	1060.4 ± 1.1	1057.3 ± 1	1053.9 ± 0.9	1050.8 ± 0.8	1047.3 ± 0.7	1043.3 ± 0.6	1039.1 ± 0.5	1034.7 ± 0.5
3500 kPa	1063 ± 1.3	1060.8 ± 1.2	1057.6 ± 1	1054.3 ± 0.9	1051.1 ± 0.8	1047.6 ± 0.7	1043.6 ± 0.6	1039.4 ± 0.6	1035 ± 0.5
4000 kPa	1063.3 ± 1.3	1061.1 ± 1.2	1057.9 ± 1	1054.6 ± 0.9	1051.4 ± 0.8	1047.9 ± 0.7	1043.9 ± 0.6	1039.7 ± 0.6	1035.3 ± 0.5
4500 kPa	1063.7 ± 1.3	1061.4 ± 1.2	1058.3 ± 1	1054.9 ± 0.9	1051.7 ± 0.8	1048.2 ± 0.7	1044.2 ± 0.6	1040 ± 0.6	1035.5 ± 0.5
5000 kPa	1064 ± 1.3	1061.8 ± 1.2	1058.6 ± 1.1	1055.2 ± 0.9	1052 ± 0.8	1048.5 ± 0.7	1044.4 ± 0.7	1040.3 ± 0.6	1035.8 ± 0.5
5500 kPa	1064.4 ± 1.3	1062.1 ± 1.2	1058.9 ± 1.1	1055.5 ± 0.9	1052.4 ± 0.8	1048.9 ± 0.7	1044.7 ± 0.7	1040.5 ± 0.6	1036.1 ± 0.5
5900 kPa	–	–	–	–	–	1049.2 ± 0.8	–	–	–
6000 kPa	1064.7 ± 1.3	1062.4 ± 1.2	1059.4 ± 1.1	1055.8 ± 1	1052.7 ± 0.9	–	1045 ± 0.7	1040.8 ± 0.6	1036.4 ± 0.5
6500 kPa	1065 ± 1.3	1062.8 ± 1.2	1059.6 ± 1.1	1056.1 ± 1	1053 ± 0.9	1049.4 ± 0.8	1045.3 ± 0.7	1041.1 ± 0.6	1036.6 ± 0.5
7000 kPa	1065.4 ± 1.4	1063.1 ± 1.2	1059.9 ± 1.1	1056.5 ± 1	1053.3 ± 0.9	1049.7 ± 0.8	1045.6 ± 0.7	1041.4 ± 0.6	1036.9 ± 0.5
7500 kPa	1065.7 ± 1.4	1063.5 ± 1.2	1060.2 ± 1.1	–	1053.6 ± 0.9	1050 ± 0.8	1045.9 ± 0.7	1041.7 ± 0.6	1037.2 ± 0.5
7600 kPa	–	–	–	1056.7 ± 1	–	–	–	–	–
8000 kPa	1066.1 ± 1.4	1063.7 ± 1.3	1060.5 ± 1.1	1057.1 ± 1	1054 ± 0.9	1050.3 ± 0.8	1046.2 ± 0.7	1041.9 ± 0.6	1037.4 ± 0.6
8500 kPa	1066.5 ± 1.4	1064 ± 1.3	1060.8 ± 1.1	1057.4 ± 1	1054.2 ± 0.9	1050.6 ± 0.8	1046.5 ± 0.7	1042.2 ± 0.6	1037.8 ± 0.6
8900 kPa	1066.7 ± 1.4	–	–	–	–	–	–	–	–
9000 kPa	–	1064.4 ± 1.3	1061.2 ± 1.1	1057.7 ± 1	1054.5 ± 0.9	1050.9 ± 0.8	1046.8 ± 0.7	1042.5 ± 0.6	1038 ± 0.6
9500 kPa	1067 ± 1.4	1064.8 ± 1.3	1061.5 ± 1.2	1058 ± 1	1054.9 ± 0.9	1051.2 ± 0.8	1047.1 ± 0.7	1042.8 ± 0.6	1038.2 ± 0.6
10000 kPa	1067.4 ± 1.4	1065.2 ± 1.3	1061.9 ± 1.2	1058.4 ± 1	1055.2 ± 0.9	1051.6 ± 0.8	1047.4 ± 0.7	1043.1 ± 0.7	1038.6 ± 0.6
10500 kPa	1067.8 ± 1.4	1065.4 ± 1.3	1062.2 ± 1.2	1058.7 ± 1	1055.6 ± 0.9	1051.9 ± 0.8	1047.7 ± 0.7	1043.4 ± 0.7	1038.8 ± 0.6
11000 kPa	1068.1 ± 1.5	1065.8 ± 1.3	1062.5 ± 1.2	1059 ± 1.1	1055.9 ± 1	1052.2 ± 0.9	1048 ± 0.8	1043.6 ± 0.7	1039.1 ± 0.6
11500 kPa	1068.4 ± 1.5	1066.1 ± 1.3	1062.8 ± 1.2	1059.3 ± 1.1	1056.2 ± 1	1052.4 ± 0.9	1048.2 ± 0.8	1044 ± 0.7	1039.3 ± 0.6
12000 kPa	1068.8 ± 1.5	1066.4 ± 1.4	1063.1 ± 1.2	1059.6 ± 1.1	1056.4 ± 1	1052.7 ± 0.9	1048.5 ± 0.8	1044.2 ± 0.7	1039.6 ± 0.6
12500 kPa	1069.1 ± 1.5	1066.7 ± 1.4	1063.5 ± 1.2	1059.9 ± 1.1	1056.7 ± 1	1053 ± 0.9	1048.8 ± 0.8	1044.5 ± 0.7	1039.8 ± 0.6
13000 kPa	1069.4 ± 1.5	1067 ± 1.4	1063.8 ± 1.2	1060.3 ± 1.1	1057 ± 1	1053.3 ± 0.9	1049.2 ± 0.8	1044.8 ± 0.7	1040.1 ± 0.6
13400 kPa	–	–	–	–	–	–	1049.5 ± 0.8	–	–
13500 kPa	1069.7 ± 1.5	1067.4 ± 1.4	1064.1 ± 1.3	1060.6 ± 1.1	1057.3 ± 1	1053.6 ± 0.9	–	1045.1 ± 0.7	1040.4 ± 0.6
13900 kPa	–	–	–	–	1057.6 ± 1	–	–	–	–
14000 kPa	1070 ± 1.5	1067.6 ± 1.4	1064.4 ± 1.3	1060.9 ± 1.1	–	1053.9 ± 0.9	1049.7 ± 0.8	1045.3 ± 0.7	1040.6 ± 0.6
14400 kPa	–	–	–	–	–	–	–	1045.6 ± 0.7	–
14500 kPa	1070.4 ± 1.5	1068 ± 1.4	1064.7 ± 1.3	1061.2 ± 1.1	1057.9 ± 1	1054.2 ± 0.9	1050 ± 0.8	–	1041 ± 0.7
15000 kPa	1070.7 ± 1.6	1068.3 ± 1.4	1065 ± 1.3	1061.5 ± 1.2	1058.2 ± 1	1054.5 ± 0.9	1050.3 ± 0.8	1045.9 ± 0.7	1041.2 ± 0.7
15400 kPa	–	–	–	1061.8 ± 1.2	–	–	–	–	–
15500 kPa	1071 ± 1.6	1068.6 ± 1.5	1065.4 ± 1.3	–	1058.5 ± 1.1	1054.8 ± 0.9	1050.6 ± 0.8	1046.2 ± 0.8	1041.4 ± 0.7
16000 kPa	1071.4 ± 1.6	1069 ± 1.5	1065.6 ± 1.3	1062 ± 1.2	1058.8 ± 1.1	1055.1 ± 1	1050.8 ± 0.9	1046.4 ± 0.8	1041.7 ± 0.7
16500 kPa	1071.7 ± 1.6	1069.2 ± 1.5	1065.9 ± 1.3	1062.4 ± 1.2	1059.1 ± 1.1	1055.4 ± 1	1051 ± 0.9	1046.6 ± 0.8	1041.9 ± 0.7
16900 kPa	–	–	1066.2 ± 1.3	–	–	–	–	–	–
17000 kPa	1072 ± 1.6	1069.6 ± 1.5	–	1062.7 ± 1.2	1059.4 ± 1.1	1055.6 ± 1	1051.3 ± 0.9	1046.9 ± 0.8	1042.2 ± 0.7
17500 kPa	1072.3 ± 1.6	1069.8 ± 1.5	1066.5 ± 1.4	–	1059.7 ± 1.1	1055.9 ± 1	1051.6 ± 0.9	1047.2 ± 0.8	1042.5 ± 0.7
17600 kPa	–	–	–	1063 ± 1.2	–	–	–	–	–
17900 kPa	1072.6 ± 1.6	–	–	–	–	1056.2 ± 1	–	–	–
18000 kPa	–	1070.2 ± 1.5	1066.7 ± 1.4	1063.3 ± 1.2	1059.9 ± 1.1	–	1051.8 ± 0.9	1047.5 ± 0.8	1042.7 ± 0.7
18400 kPa	–	–	–	–	–	–	–	1047.6 ± 0.8	–
18500 kPa	1072.9 ± 1.7	1070.5 ± 1.5	1067.1 ± 1.4	1063.5 ± 1.2	1060.2 ± 1.1	1056.5 ± 1	1052.1 ± 0.9	–	1043 ± 0.7
19000 kPa	1073.3 ± 1.7	1070.8 ± 1.5	1067.4 ± 1.4	1063.9 ± 1.3	1060.6 ± 1.1	1056.8 ± 1	1052.4 ± 0.9	1048 ± 0.8	1043.2 ± 0.7
19400 kPa	–	–	1067.7 ± 1.4	1064.1 ± 1.3	–	–	–	–	–
19500 kPa	1073.6 ± 1.7	1071.1 ± 1.6	–	–	1060.9 ± 1.2	1057 ± 1	1052.8 ± 0.9	1048.2 ± 0.8	1043.5 ± 0.7
20000 kPa	1073.9 ± 1.7	1071.4 ± 1.6	1068.2 ± 1.4	–	1061.2 ± 1.2	1057.5 ± 1.1	1053 ± 0.9	1048.7 ± 0.8	1043.8 ± 0.7
20100 kPa	–	–	–	1064.5 ± 1.3	–	–	–	–	–
